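Method: 48-hour compound exposure of cells in 96-well plates, five concentrations, linear interpolation of endpoints. TGI marks complete inhibition of growth.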
Assays:
Experiment in all cases: NCI-60 cell line screen, 48 h
786-0 renal = test system: 786-0 renal
A498 renal = test system: A498 renal
A549 NSCLC = test system: A549 NSCLC
ACHN renal = test system: ACHN renal
CAKI-1 renal = test system: CAKI-1 renal
CCRF-CEM leukemia = test system: CCRF-CEM leukemia
COLO 205 colon = test system: COLO 205 colon
DLD-1 colon = test system: DLD-1 colon
DMS 114 small cell lung = test system: DMS 114 small cell lung
DMS 273 small cell lung = test system: DMS 273 small cell lung
EKVX NSCLC = test system: EKVX NSCLC
HCC-2998 colon = test system: HCC-2998 colon
HCT-116 colon = test system: HCT-116 colon
HCT-15 colon = test system: HCT-15 colon
HL-60(TB) leukemia = test system: HL-60(TB) leukemia
HOP-18 NSCLC = test system: HOP-18 NSCLC
HOP-62 NSCLC = test system: HOP-62 NSCLC
HOP-92 NSCLC = test system: HOP-92 NSCLC
HT29 colon = test system: HT29 colon
IGROV1 ovarian = test system: IGROV1 ovarian
K-562 leukemia = test system: K-562 leukemia
KM12 colon = test system: KM12 colon
KM20L2 colon = test system: KM20L2 colon
LXFL 529 NSCLC = test system: LXFL 529 NSCLC
M14 melanoma = test system: M14 melanoma
M19-MEL melanoma = test system: M19-MEL melanoma
MALME-3M melanoma = test system: MALME-3M melanoma
MOLT-4 leukemia = test system: MOLT-4 leukemia
NCI-H226 lung = test system: NCI-H226 lung
NCI-H23 lung = test system: NCI-H23 lung
NCI-H460 lung = test system: NCI-H460 lung
NCI-H522 lung = test system: NCI-H522 lung
OVCAR-3 ovarian = test system: OVCAR-3 ovarian
OVCAR-4 ovarian = test system: OVCAR-4 ovarian
OVCAR-5 ovarian = test system: OVCAR-5 ovarian
OVCAR-8 ovarian = test system: OVCAR-8 ovarian
RPMI-8226 leukemia = test system: RPMI-8226 leukemia
RXF 393 renal = test system: RXF 393 renal
SF-268 CNS = test system: SF-268 CNS
SF-295 CNS = test system: SF-295 CNS
SF-539 CNS = test system: SF-539 CNS
SK-MEL-2 melanoma = test system: SK-MEL-2 melanoma
SK-MEL-5 melanoma = test system: SK-MEL-5 melanoma
SK-OV-3 ovarian = test system: SK-OV-3 ovarian
SN12C renal = test system: SN12C renal
SNB-75 CNS = test system: SNB-75 CNS
SNB-78 CNS = test system: SNB-78 CNS
SR leukemia = test system: SR leukemia
SW-620 colon = test system: SW-620 colon
TK-10 renal = test system: TK-10 renal
U251 CNS = test system: U251 CNS
UACC-257 melanoma = test system: UACC-257 melanoma
UACC-62 melanoma = test system: UACC-62 melanoma
UO-31 renal = test system: UO-31 renal
XF 498 CNS = test system: XF 498 CNS
LOX IMVI melanoma = test system: LOX IMVI melanoma
RXF-631 renal = test system: RXF-631 renal
SK-MEL-28 melanoma = test system: SK-MEL-28 melanoma
SNB-19 CNS = test system: SNB-19 CNS

CC#CC1C(OC(=O)c2ccccc2)CCCC1(CI)N=[N+]=[N-] (stereo not drawn)
TGI (786-0 renal): > 100 µM | TGI (A498 renal): > 100 µM | TGI (A549 NSCLC): > 100 µM | TGI (ACHN renal): > 100 µM | TGI (CAKI-1 renal): > 100 µM | TGI (CCRF-CEM leukemia): > 100 µM | TGI (COLO 205 colon): > 100 µM | TGI (DLD-1 colon): > 100 µM | TGI (DMS 114 small cell lung): 99.2 µM | TGI (DMS 273 small cell lung): > 100 µM | TGI (EKVX NSCLC): > 100 µM | TGI (HCC-2998 colon): > 100 µM | TGI (HCT-116 colon): > 100 µM | TGI (HCT-15 colon): > 100 µM | TGI (HL-60(TB) leukemia): 42.2 µM | TGI (HOP-18 NSCLC): > 100 µM | TGI (HOP-62 NSCLC): > 100 µM | TGI (HOP-92 NSCLC): > 100 µM | TGI (HT29 colon): > 100 µM | TGI (IGROV1 ovarian): > 100 µM | TGI (K-562 leukemia): > 100 µM | TGI (KM12 colon): > 100 µM | TGI (KM20L2 colon): > 100 µM | TGI (LXFL 529 NSCLC): > 100 µM | TGI (M14 melanoma): > 100 µM | TGI (M19-MEL melanoma): > 100 µM | TGI (MALME-3M melanoma): > 100 µM | TGI (MOLT-4 leukemia): 44.4 µM | TGI (NCI-H226 lung): > 100 µM | TGI (NCI-H23 lung): > 100 µM | TGI (NCI-H460 lung): > 100 µM | TGI (NCI-H522 lung): 63.8 µM | TGI (OVCAR-3 ovarian): > 100 µM | TGI (OVCAR-4 ovarian): > 100 µM | TGI (OVCAR-5 ovarian): > 100 µM | TGI (OVCAR-8 ovarian): > 100 µM | TGI (RPMI-8226 leukemia): 86.2 µM | TGI (RXF 393 renal): > 100 µM | TGI (SF-268 CNS): > 100 µM | TGI (SF-295 CNS): > 100 µM | TGI (SF-539 CNS): > 100 µM | TGI (SK-MEL-2 melanoma): > 100 µM | TGI (SK-MEL-5 melanoma): 42.2 µM | TGI (SK-OV-3 ovarian): > 100 µM | TGI (SN12C renal): > 100 µM | TGI (SNB-75 CNS): > 100 µM | TGI (SNB-78 CNS): > 100 µM | TGI (SR leukemia): 55.2 µM | TGI (SW-620 colon): > 100 µM | TGI (TK-10 renal): > 100 µM | TGI (U251 CNS): > 100 µM | TGI (UACC-257 melanoma): > 100 µM | TGI (UACC-62 melanoma): > 100 µM | TGI (UO-31 renal): > 100 µM | TGI (XF 498 CNS): 78.7 µM

O=c1[nH]c(-c2ccc(-c3nc4cc([N+](=O)[O-])ccc4c(=O)[nH]3)cc2)nc2cc([N+](=O)[O-])ccc12
TGI (786-0 renal): > 100 µM | TGI (A498 renal): 31.3 µM | TGI (A549 NSCLC): > 100 µM | TGI (ACHN renal): > 100 µM | TGI (CAKI-1 renal): > 100 µM | TGI (CCRF-CEM leukemia): > 100 µM | TGI (COLO 205 colon): > 100 µM | TGI (DLD-1 colon): > 100 µM | TGI (DMS 114 small cell lung): > 100 µM | TGI (DMS 273 small cell lung): > 100 µM | TGI (EKVX NSCLC): > 100 µM | TGI (HCC-2998 colon): > 100 µM | TGI (HCT-116 colon): > 100 µM | TGI (HCT-15 colon): > 100 µM | TGI (HL-60(TB) leukemia): > 100 µM | TGI (HOP-62 NSCLC): > 100 µM | TGI (HOP-92 NSCLC): > 100 µM | TGI (HT29 colon): > 100 µM | TGI (IGROV1 ovarian): > 100 µM | TGI (K-562 leukemia): > 100 µM | TGI (KM12 colon): > 100 µM | TGI (KM20L2 colon): > 100 µM | TGI (LOX IMVI melanoma): > 100 µM | TGI (LXFL 529 NSCLC): > 100 µM | TGI (M14 melanoma): > 100 µM | TGI (M19-MEL melanoma): > 100 µM | TGI (MALME-3M melanoma): > 100 µM | TGI (MOLT-4 leukemia): > 100 µM | TGI (NCI-H226 lung): > 100 µM | TGI (NCI-H23 lung): > 100 µM | TGI (NCI-H460 lung): > 100 µM | TGI (NCI-H522 lung): > 100 µM | TGI (OVCAR-3 ovarian): > 100 µM | TGI (OVCAR-4 ovarian): > 100 µM | TGI (OVCAR-5 ovarian): > 100 µM | TGI (OVCAR-8 ovarian): > 100 µM | TGI (RPMI-8226 leukemia): > 100 µM | TGI (RXF 393 renal): > 100 µM | TGI (RXF-631 renal): > 100 µM | TGI (SF-295 CNS): > 100 µM | TGI (SF-539 CNS): > 100 µM | TGI (SK-MEL-2 melanoma): > 100 µM | TGI (SK-MEL-28 melanoma): > 100 µM | TGI (SK-MEL-5 melanoma): > 100 µM | TGI (SK-OV-3 ovarian): > 100 µM | TGI (SN12C renal): > 100 µM | TGI (SNB-19 CNS): > 100 µM | TGI (SNB-75 CNS): > 100 µM | TGI (SNB-78 CNS): > 100 µM | TGI (SR leukemia): > 100 µM | TGI (SW-620 colon): > 100 µM | TGI (TK-10 renal): > 100 µM | TGI (U251 CNS): > 100 µM | TGI (UACC-257 melanoma): > 100 µM | TGI (UACC-62 melanoma): > 100 µM | TGI (UO-31 renal): > 100 µM

CC(C)C12C=CC(C)(CC1)n1c(=O)c3cc4ccccc4cc3c(=O)n12 (stereo not drawn)
TGI (786-0 renal): > 100 µM | TGI (A498 renal): 79.1 µM | TGI (A549 NSCLC): > 100 µM | TGI (ACHN renal): > 100 µM | TGI (CAKI-1 renal): > 100 µM | TGI (CCRF-CEM leukemia): > 100 µM | TGI (COLO 205 colon): > 100 µM | TGI (DLD-1 colon): > 100 µM | TGI (DMS 114 small cell lung): > 100 µM | TGI (DMS 273 small cell lung): > 100 µM | TGI (EKVX NSCLC): > 100 µM | TGI (HCC-2998 colon): > 100 µM | TGI (HCT-116 colon): > 100 µM | TGI (HCT-15 colon): > 100 µM | TGI (HL-60(TB) leukemia): > 100 µM | TGI (HOP-62 NSCLC): > 100 µM | TGI (HOP-92 NSCLC): > 100 µM | TGI (HT29 colon): > 100 µM | TGI (IGROV1 ovarian): > 100 µM | TGI (K-562 leukemia): > 100 µM | TGI (KM12 colon): > 100 µM | TGI (KM20L2 colon): > 100 µM | TGI (LOX IMVI melanoma): > 100 µM | TGI (LXFL 529 NSCLC): > 100 µM | TGI (M14 melanoma): > 100 µM | TGI (M19-MEL melanoma): > 100 µM | TGI (MALME-3M melanoma): > 100 µM | TGI (MOLT-4 leukemia): > 100 µM | TGI (NCI-H226 lung): > 100 µM | TGI (NCI-H23 lung): > 100 µM | TGI (NCI-H460 lung): > 100 µM | TGI (NCI-H522 lung): 83.7 µM | TGI (OVCAR-3 ovarian): > 100 µM | TGI (OVCAR-4 ovarian): > 100 µM | TGI (OVCAR-5 ovarian): > 100 µM | TGI (OVCAR-8 ovarian): > 100 µM | TGI (RPMI-8226 leukemia): > 100 µM | TGI (RXF 393 renal): > 100 µM | TGI (RXF-631 renal): > 100 µM | TGI (SF-268 CNS): > 100 µM | TGI (SF-295 CNS): > 100 µM | TGI (SF-539 CNS): > 100 µM | TGI (SK-MEL-2 melanoma): > 100 µM | TGI (SK-MEL-28 melanoma): > 100 µM | TGI (SK-MEL-5 melanoma): > 100 µM | TGI (SK-OV-3 ovarian): > 100 µM | TGI (SN12C renal): > 100 µM | TGI (SNB-19 CNS): > 100 µM | TGI (SNB-75 CNS): > 100 µM | TGI (SNB-78 CNS): > 100 µM | TGI (SR leukemia): > 100 µM | TGI (SW-620 colon): > 100 µM | TGI (TK-10 renal): 94 µM | TGI (U251 CNS): > 100 µM | TGI (UACC-257 melanoma): > 100 µM | TGI (UO-31 renal): 96.6 µM | TGI (XF 498 CNS): > 100 µM

Source: PubChem BioAssay (NCI)
